Here are results for three molecules from publication PMC9931769, “Bacterial origins of thymidylate metabolism in Asgard archaea and Eukarya” (Nature Communications, 2023).

One may read the inhibition as how much of the control response was suppressed. Read a high inhibition as a strong effect. One may read the Km as the concentration of substrate that gives half-maximal velocity.

The target of data set [1] is T1, Psyn ThyX (Promethearchaeum syntrophicum, UniProt A0A5B9D7C8).
T1 sequence (A0A5B9D7C8 1-298): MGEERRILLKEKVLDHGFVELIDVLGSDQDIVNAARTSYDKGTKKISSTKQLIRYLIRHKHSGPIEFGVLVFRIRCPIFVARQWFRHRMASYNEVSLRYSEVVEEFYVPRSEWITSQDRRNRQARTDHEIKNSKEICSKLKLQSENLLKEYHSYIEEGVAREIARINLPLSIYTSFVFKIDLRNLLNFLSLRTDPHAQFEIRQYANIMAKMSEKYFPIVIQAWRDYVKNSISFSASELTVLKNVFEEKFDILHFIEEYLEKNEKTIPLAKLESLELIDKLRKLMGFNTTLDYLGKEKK
Put plainly: inhibition of NADPH oxidation, absorbance at […] nm. Format: biochemical.

Substrate in data set [2]: O=c1ccn([C@H]2C[C@H](O)[C@@H](COP(=O)(O)O)O2)c(=O)[nH]1
Put plainly: purified protein. The settings on record: 50 mM sodium phosphate pH 8, 300 mM NaCl, 2 mM MgCl2, 50 μM FAD, 750 μM NADPH, 0.4 μM enzyme, 25 °C. Format: biochemical, Promethearchaeum syntrophicum.

Some results are limits rather than exact numbers.

The molecule `Nc1nc2c(c(=O)[nH]1)N1CN(c3ccc(C(=O)N[C@@H](CCC(=O)O)C(=O)O)cc3)C[C@H]1CN2` [CH2H4folate] had an inhibition at 200 µM in data set [1] greater than 50%.

Take `Nc1nc2c(c(=O)[nH]1)N[C@@H](CNc1ccc(C(=O)N[C@@H](CCC(=O)O)C(=O)O)cc1)CN2` [H4folate]: the inhibition at 200 µM in data set [1] was greater than 50%.

B1: Psyn ThyX (Promethearchaeum syntrophicum) (protein)
chain: T1 sequence (A0A5B9D7C8 1-298)
Take B1: in data set [2], the Km was 0.235 ± 0.035 µM.
